The results in this text go back to publication PMC12491243, “Rational design of indoleamine 2,3-dioxygenase 1 (IDO1) inhibitors featuring 1,2,3-triazole derivatives with enhanced anti-inflammatory and analgesic efficacy” (Frontiers in Pharmacology, 2025).

What all share (format): in vivo
Series [1] relates to CFA-induced inflammatory pain model. The series can be described thus: CFA-induced thermal hyperalgesia, paw withdrawal latency. Conditions: CFA mice, 30 mg/kg i.p., ipsilateral side, 12 to 72 h post-CFA. As for the experimental part:
To evaluate the analgesic effects of Compound 14e in vivo, we established an inflammatory pain model using intraplantar injection of CFA. Compound 14e (30 mg/kg) was administered intraperitoneally at 6 h, with subsequent doses at 48 and 72 h after CFA injection. Behavioral assessments, including von Frey testing for mechanical allodynia and heat stimuli for thermal hyperalgesia, were conducted on the injected hind paw at baseline (BL), as well as at 6, 12, 18, 24, 48 and 72 h post-CFA injection. Additionally, flinching and guarding behaviors, indicators of spontaneous pain, were evaluated 72 h after CFA injection.
FIGURE 5 Compound 14e attenuates mechanical allodynia, thermal hyperalgesia and spontaneous pain of inflammatory pain in mice. (A,B) Evaluation of CFA-induced mechanical allodynia as assessed by withdrawal frequency to 0.07 g (A) and 0.4 g (B) von Frey filaments in mice repetitive treated with 10% DMSO or compound 14e. […]
The compound 14e were diluted with 10% DMSO, and were intraperitoneally injected with 30 mg/kg into the mice once a day for 3 days after CFA. The dosage of compound 14e was determined based on our preliminary experiments.
For the thermal nociceptive response, paw withdrawal latencies (PWLs) to thermal stimulus were measured by a heat flux radiometer (Ugo Basile S.R.L., Italy) ([Liu et al., 2023]). […]

In another series the test system is IL-1β. The series can be described thus: ELISA of IL-1β in inflamed paw, spinal cord and serum of CFA mice. Conditions: ipsilateral L4–L6 spinal cord and serum, 72 h after CFA. The source says:
To determine whether the analgesic effects of Compound 14e are associated with reduced local and systemic inflammation, we measured the levels of inflammatory factors in the inflamed paw tissue, ipsilateral L4–L6 spinal cord, and peripheral blood. The results indicated a significant increase in the protein levels of TNF-α and IL-1β in the inflamed paw, spinal cord, and serum of mice in the CFA group compared to the vehicle group.
FIGURE 6 Compound 14e reduces TNF-α and IL-1β in the inflamed hindpaw skin, spinal cord and peripheral blood 72 h after CFA-induced inflammation. (A,D) Expression levels of TNF-α and IL-1β in the inflamed skin tissue. (B,E) Expression levels of TNF-α and IL-1β in ipsilateral L4–6 spinal cord. […]
Under anesthesia with 1% pentobarbital sodium, serum was obtained from the mice orbits, after coagulation at room temperature for 2 h, the sample was then centrifuged at 1,000 × g for 20 min at 4 °C, with the supernatant collected. […] The protein concentrations were determined using a bicinchoninic acid (BCA) kit (Pierce Biotechnology Inc.). The following inflammatory factors were measured using Mouse TNF-α ELISA kit (EM0183) and IL-1β ELISA kit (EM0109) obtained from Wuhan Fine Biotechnology Company, according to the product protocols. The O.D. absorbance at 450 nm was quantified in a ultramicroplate spectrophotometer (BioTek Epoch).

The next series has as its system KM mice. The series can be described thus: Acute toxicity test in KM mice. Conditions: 500 mg/kg via gavage, 14 days. How it is done:
We evaluated the safety of compound 14e using an acute toxicity test in KM mice. Male mice (8–9 weeks old) were randomly divided into a solvent control group and a 14e-treated group. The control group received an equivalent volume of solvent (5% DMSO +40% PEG300 + 1% Tween-80 + 54% saline) via gavage, while the treatment group received compound 14e solution (500 mg/kg). Beginning on day 1 after administration, body weight and general appearance were monitored for 14 days. At the end of the study, blood samples were collected to determine serum levels of Alanine Aminotransferase (ALT) and Aspartate Aminotransferase (AST). In addition, representative organs (heart, liver, spleen, lung, and kidneys) were excised, weighed, and used to calculate organ indices (organ index = organ weight/body weight × 100%).
FIGURE 7 Acute toxicity experiments of compound 14e were conducted in mice. (A) The body wight of mice were recorded for 14 days after treatment. (B) The acute toxicity experiments examined the effects of 14e on mouse organs. (C) Effect of acute toxicity experimental studies on blood biochemical indices ALT and AST in mice.

Regarding `O=C1COc2ccc(NC(=O)c3cccc(-c4cn(Cc5c(F)cccc5Cl)nn4)c3)cc2N1` [Compound 14e], the “thermal hyperalgesia, paw withdrawal latency (PWL)” value in series [1] is given as “significantly alleviated”. Also, in the series on IL-1β, the “CFA-induced levels of IL-1β” value is reported as “significantly decreased”. In the series with KM mice, the “acute toxicity, overall” value is recorded as “does not cause noticeable toxicity”; the “organ indices (heart, liver, spleen, lung, kidneys)” value is “remained stable”; the “serum ALT level” value is on record as “did not significantly affect”; the “serum AST level” value is on record as “did not significantly affect”. The body weight entry in the series with KM mice (versus solvent control) is on record as “no significant changes”.
